This passage reports IC50 results from BindingDB's records for doi:10.1016/j.ejmech.2011.02.013 (King Saud University, 2011).

Broadly, the IC50 is the point on the concentration scale where inhibition reaches its midpoint. A higher IC50 goes with a need for much substance.

Where only a bound is given, the exact number is not on record here.

In this assay the target is T1, Prostaglandin G/H synthase 1 (Ovis aries, UniProt P05979).
T1 sequence (P05979 whole entry): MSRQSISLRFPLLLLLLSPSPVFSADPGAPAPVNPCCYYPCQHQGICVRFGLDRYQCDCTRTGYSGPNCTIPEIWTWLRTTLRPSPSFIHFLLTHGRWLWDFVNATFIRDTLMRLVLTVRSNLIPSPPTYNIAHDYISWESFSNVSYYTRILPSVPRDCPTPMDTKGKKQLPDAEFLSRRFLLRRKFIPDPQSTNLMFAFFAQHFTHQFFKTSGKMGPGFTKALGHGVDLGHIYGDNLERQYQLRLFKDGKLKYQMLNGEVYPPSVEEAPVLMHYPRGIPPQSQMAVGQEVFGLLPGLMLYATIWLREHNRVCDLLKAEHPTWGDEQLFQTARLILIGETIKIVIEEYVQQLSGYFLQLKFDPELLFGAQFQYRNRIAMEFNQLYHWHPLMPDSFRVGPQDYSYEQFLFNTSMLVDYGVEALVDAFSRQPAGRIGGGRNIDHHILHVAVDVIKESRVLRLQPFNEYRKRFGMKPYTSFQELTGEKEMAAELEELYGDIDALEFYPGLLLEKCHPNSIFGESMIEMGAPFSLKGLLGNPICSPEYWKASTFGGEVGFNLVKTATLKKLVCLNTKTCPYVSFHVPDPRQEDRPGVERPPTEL
The assay can be described thus: Inhibition of ovine COX1 after 5 mins by enzyme immunoassay.
With `COc1cc(-n2c(O)ccc2O)cc(OC)c1OC` [1-(3,4,5-Trimethoxyphenyl)pyrrolidine-2,5-dione], the IC50 is above 100 µM.
On to `Oc1ccc(O)n1-c1cc(Cl)c(Cl)c(Cl)c1` [1-(3,4,5-trichlorophenyl)pyrrolidine-2,5-dione], for which the IC50 is above 100 µM.
Compound `Oc1c2c(c(O)n1-c1cc(Cl)c(Cl)c(Cl)c1)C1(Cl)C(Cl)=C(Cl)C2(Cl)C1(Cl)Cl` [4,5,6,7,8,8-Hexachloro-2-(3,4,5-trichlorophenyl)-3a,4,7,7a-tetrahydro-1H-4,7-methanoisoindole-1,3(2H)-dione] returned an IC50 above 100 µM.
Regarding `COc1cc(-n2c(O)c3c(c2O)C2(Cl)C(Cl)=C(Cl)C3(Cl)C2(Cl)Cl)cc(OC)c1OC` [4,5,6,7,8,8-Hexachloro-2-(3,4,5-trimethoxyphenyl)-3a,4,7,7a-tetrahydro-1H-4,7-methanoisoindole-1,3(2H)-dione], the IC50 is above 100 µM.
Consider `Oc1c2c(c(O)n1-c1cc(Cl)c(Cl)c(Cl)c1)CC=CC2` [cis-2-(3,4,5-Trichlorophenyl)-3a,4,7,7a-tetrahydro-1H-isoindole-1,3(2H)-dione], for which the IC50 is above 100 µM.
As for `COc1cc(-n2c(O)c3c(c2O)CC=CC3)cc(OC)c1OC` [cis-2-(3,4,5-Trimethoxyphenyl)-3a,4,7,7a-tetrahydro-1H-isoindole-1,3(2H)-dione], the IC50 was above 100 µM.
